Test results as given in ChEMBL document CHEMBL2074402, “Expression of multidrug resistance-associated protein in NIH/3T3 cells confers multidrug resistance associated with increased drug efflux and altered intracellular drug distribution” (Cancer Res, 1995).
Numbered stars: 1 amine (or outer) side, 2 acyl side, 3 side chain; on linkers, the order of the positions; unused ones are H or OH. Bridge positions count the residues as written; N and C are the ends. Square brackets hold non-standard residues; d marks the D form. Peptide text beside a SMILES is read from it. I, II: the chains in the order shown. Actinocin(9to1) = Cc1c2oc3c(C)ccc(C(=O)[*:1])c3nc-2c(C(=O)[*:2])c(N)c1=O; NMeV = CN[C@H](C(=O)O)C(C)C; Sar = CNCC(=O)O

Target: Multidrug resistance-associated protein 1 (Homo sapiens, UniProt P33527)
Test: TP_TRANSPORTER: drug sensitivity in MRP1-expressing NIH/3T3 cells
Type: functional, cell-based
Details: mouse, nih3t3

Sequence of Multidrug resistance-associated protein 1 (P33527 whole entry): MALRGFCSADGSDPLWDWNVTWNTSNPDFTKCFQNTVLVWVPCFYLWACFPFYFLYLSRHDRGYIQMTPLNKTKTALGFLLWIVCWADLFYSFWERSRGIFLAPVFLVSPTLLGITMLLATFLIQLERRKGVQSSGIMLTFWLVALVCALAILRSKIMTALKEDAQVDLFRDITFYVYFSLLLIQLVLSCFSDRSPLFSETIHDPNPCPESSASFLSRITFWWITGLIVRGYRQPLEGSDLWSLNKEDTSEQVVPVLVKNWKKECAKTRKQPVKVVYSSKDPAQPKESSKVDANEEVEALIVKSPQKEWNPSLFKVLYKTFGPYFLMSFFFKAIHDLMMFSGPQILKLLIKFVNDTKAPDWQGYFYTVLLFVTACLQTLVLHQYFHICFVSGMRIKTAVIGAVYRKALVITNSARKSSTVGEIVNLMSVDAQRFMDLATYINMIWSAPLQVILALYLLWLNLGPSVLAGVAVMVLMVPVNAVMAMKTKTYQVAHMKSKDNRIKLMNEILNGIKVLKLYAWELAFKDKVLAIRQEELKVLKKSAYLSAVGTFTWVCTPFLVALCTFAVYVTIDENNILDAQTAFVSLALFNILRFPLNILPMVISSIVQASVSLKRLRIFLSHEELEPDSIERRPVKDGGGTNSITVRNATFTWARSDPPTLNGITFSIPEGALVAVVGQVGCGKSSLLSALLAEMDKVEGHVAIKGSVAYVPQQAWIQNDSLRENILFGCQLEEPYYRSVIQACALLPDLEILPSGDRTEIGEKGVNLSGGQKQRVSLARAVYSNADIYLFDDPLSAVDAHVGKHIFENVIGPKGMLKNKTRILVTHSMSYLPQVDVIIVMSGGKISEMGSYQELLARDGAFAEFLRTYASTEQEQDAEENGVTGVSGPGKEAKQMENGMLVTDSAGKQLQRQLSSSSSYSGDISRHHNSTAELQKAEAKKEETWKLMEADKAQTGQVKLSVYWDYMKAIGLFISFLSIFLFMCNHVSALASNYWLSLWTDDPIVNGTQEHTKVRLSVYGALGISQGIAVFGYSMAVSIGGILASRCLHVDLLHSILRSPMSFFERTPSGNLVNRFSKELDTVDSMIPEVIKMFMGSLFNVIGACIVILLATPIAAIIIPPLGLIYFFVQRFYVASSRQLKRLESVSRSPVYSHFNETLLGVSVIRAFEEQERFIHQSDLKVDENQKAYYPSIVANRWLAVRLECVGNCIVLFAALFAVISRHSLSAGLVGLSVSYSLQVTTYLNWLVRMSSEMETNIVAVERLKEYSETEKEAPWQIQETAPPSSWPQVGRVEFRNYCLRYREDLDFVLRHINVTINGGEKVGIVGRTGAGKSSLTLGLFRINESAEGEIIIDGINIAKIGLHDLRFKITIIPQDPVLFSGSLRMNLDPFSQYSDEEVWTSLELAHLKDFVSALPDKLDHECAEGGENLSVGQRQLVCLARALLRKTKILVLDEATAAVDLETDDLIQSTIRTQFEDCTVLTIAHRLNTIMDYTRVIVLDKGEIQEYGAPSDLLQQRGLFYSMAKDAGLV

Activity: substrate [+]
Structure (SMILES): Cc1c2oc3c(C)ccc(C(=O)N[C@@H]4C(=O)N[C@H](C(C)C)C(=O)N5CCC[C@H]5C(=O)N(C)CC(=O)N(C)[C@@H](C(C)C)C(=O)O[C@@H]4C)c3nc-2c(C(=O)N[C@@H]2C(=O)N[C@H](C(C)C)C(=O)N3CCC[C@H]3C(=O)N(C)CC(=O)N(C)[C@@H](C(C)C)C(=O)O[C@@H]2C)c(N)c1=O [DACTINOMYCIN] (I: T[dV]P[Sar][NMeV] / II: T[dV]P[Sar][NMeV]; ester I:1-I:C, II:1-II:C; linker I:N-II:N via Actinocin(9to1))
